We go through six molecules from ChEMBL document CHEMBL5465560, “Selectivity Literature for EUbOPEN Chemogenomic Library” (2024).

Assay [1] deals with T1, Mitogen-activated protein kinase kinase kinase 15 (Homo sapiens) (UniProt Q6ZN16).
T1 sequence (whole entry): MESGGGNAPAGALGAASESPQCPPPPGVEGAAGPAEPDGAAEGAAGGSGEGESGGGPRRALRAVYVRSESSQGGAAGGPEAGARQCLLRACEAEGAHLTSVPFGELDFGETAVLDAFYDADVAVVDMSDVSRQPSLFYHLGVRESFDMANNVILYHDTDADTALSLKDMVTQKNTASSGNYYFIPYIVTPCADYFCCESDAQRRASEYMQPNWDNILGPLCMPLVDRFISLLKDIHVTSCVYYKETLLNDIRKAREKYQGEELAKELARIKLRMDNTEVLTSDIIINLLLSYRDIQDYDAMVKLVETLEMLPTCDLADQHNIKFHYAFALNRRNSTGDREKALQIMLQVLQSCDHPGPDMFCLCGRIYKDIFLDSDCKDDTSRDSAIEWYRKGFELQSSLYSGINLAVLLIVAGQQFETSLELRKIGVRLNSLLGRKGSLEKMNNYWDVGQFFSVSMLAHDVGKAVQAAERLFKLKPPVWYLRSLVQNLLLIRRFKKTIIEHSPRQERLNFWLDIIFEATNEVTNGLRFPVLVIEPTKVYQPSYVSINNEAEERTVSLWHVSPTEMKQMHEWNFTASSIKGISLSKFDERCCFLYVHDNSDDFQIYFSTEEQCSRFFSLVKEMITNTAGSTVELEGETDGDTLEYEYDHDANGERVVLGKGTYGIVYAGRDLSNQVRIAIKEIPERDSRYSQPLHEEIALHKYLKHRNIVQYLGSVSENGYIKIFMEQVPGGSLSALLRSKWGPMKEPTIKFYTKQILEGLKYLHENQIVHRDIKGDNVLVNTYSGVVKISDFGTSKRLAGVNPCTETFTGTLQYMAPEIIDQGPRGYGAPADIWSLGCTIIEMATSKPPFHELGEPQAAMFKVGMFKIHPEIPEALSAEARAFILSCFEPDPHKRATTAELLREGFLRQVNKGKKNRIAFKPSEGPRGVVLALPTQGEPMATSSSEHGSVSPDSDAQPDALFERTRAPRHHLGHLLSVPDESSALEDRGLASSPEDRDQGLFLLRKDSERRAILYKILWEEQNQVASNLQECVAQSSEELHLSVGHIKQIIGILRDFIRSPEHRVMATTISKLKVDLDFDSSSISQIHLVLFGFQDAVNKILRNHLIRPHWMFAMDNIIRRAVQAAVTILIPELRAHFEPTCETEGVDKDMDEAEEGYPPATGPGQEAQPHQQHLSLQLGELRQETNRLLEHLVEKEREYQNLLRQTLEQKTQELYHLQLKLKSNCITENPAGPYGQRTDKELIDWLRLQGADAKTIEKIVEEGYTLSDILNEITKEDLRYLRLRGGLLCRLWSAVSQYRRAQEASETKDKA
In words: Selectivity interaction (Kinase panel (KiNativ target engagement assay in Jurkat cells)) EUB0001635a MAP3K15. The following applies: at 1 µM. It is filed as cell-based.

The target in assay [2] is Serine/threonine-protein kinase 26 (Homo sapiens, UniProt Q9P289). Kind of assay: Selectivity interaction (KinomeScan (DiscoverX)) EUB0000666a STK26. Conditions: at 10 µM.
Serine/threonine-protein kinase 26, sequence (Q9P289 2-416 limits assumed): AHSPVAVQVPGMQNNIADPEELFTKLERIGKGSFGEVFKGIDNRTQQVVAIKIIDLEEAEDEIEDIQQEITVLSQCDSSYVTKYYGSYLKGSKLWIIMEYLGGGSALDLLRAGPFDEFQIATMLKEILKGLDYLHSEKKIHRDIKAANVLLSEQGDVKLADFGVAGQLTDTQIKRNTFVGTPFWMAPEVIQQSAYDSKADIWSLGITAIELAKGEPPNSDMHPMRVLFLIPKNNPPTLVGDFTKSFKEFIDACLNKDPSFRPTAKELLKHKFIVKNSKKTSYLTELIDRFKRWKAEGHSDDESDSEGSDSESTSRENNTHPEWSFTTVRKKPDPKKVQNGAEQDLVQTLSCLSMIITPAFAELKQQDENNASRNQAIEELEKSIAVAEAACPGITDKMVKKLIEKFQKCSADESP
A further assay deals with Aurora kinase A (Homo sapiens, UniProt O14965). In words: Selectivity interaction (Radiometric kinase assay (using 10 uM ATP)) EUB0000601a STK6.
Aurora kinase A, sequence (O14965 whole entry): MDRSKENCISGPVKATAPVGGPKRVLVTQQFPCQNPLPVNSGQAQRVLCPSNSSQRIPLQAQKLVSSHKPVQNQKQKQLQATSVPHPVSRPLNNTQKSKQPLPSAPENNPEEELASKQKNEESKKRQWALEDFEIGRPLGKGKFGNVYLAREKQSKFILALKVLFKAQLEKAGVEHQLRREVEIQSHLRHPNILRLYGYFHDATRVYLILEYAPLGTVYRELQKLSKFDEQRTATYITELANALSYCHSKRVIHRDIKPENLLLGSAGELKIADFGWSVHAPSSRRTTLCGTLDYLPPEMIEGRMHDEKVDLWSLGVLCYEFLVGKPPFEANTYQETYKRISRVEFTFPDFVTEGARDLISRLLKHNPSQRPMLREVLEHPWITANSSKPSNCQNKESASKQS
The target of assay [3] is T2, Serine/threonine-protein kinase TAO3 (Homo sapiens) (UniProt Q9H2K8).
T2 sequence (whole entry): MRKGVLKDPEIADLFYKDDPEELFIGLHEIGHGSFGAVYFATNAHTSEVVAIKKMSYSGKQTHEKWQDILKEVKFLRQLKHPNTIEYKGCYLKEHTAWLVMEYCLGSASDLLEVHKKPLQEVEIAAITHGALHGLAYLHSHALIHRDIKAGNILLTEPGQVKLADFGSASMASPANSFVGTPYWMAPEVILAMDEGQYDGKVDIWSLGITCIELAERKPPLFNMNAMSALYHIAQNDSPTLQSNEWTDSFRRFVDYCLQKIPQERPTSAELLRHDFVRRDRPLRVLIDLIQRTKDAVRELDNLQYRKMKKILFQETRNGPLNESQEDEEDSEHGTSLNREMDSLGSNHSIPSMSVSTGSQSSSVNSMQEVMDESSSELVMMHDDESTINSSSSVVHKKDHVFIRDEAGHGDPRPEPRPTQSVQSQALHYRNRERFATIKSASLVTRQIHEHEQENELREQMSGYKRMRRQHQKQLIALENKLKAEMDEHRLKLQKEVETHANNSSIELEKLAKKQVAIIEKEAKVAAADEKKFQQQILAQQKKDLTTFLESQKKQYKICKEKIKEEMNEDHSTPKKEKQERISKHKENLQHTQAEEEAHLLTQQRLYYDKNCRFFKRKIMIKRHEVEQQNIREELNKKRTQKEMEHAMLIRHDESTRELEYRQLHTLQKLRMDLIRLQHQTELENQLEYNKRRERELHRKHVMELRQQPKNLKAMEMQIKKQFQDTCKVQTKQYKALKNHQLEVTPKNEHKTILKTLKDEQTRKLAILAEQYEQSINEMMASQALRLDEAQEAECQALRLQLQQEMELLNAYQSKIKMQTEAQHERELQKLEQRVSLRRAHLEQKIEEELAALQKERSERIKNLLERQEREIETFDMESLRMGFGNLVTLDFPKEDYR
In words: Selectivity interaction (KinomeScan (DiscoverX)) EUB0001619a TAOK3. The following applies: at 1 µM.

In assay [4] the target is STE20/SPS1-related proline-alanine-rich protein kinase (Homo sapiens) (UniProt Q9UEW8). In words: Selectivity interaction (ProQinase) EUB0000171b STK39.
Assay [5] has as its target 5-hydroxytryptamine receptor 2A (Homo sapiens, UniProt P28223). In words: Selectivity interaction (Panel of kinases, GPCRs, ion channels and transporters (enzymatic assay)) EUB0000223bCl HTR2A.

Usually IC50 stands for the concentration needed to halve the response being measured.

5-hydroxytryptamine receptor 2A, sequence (P28223 whole entry): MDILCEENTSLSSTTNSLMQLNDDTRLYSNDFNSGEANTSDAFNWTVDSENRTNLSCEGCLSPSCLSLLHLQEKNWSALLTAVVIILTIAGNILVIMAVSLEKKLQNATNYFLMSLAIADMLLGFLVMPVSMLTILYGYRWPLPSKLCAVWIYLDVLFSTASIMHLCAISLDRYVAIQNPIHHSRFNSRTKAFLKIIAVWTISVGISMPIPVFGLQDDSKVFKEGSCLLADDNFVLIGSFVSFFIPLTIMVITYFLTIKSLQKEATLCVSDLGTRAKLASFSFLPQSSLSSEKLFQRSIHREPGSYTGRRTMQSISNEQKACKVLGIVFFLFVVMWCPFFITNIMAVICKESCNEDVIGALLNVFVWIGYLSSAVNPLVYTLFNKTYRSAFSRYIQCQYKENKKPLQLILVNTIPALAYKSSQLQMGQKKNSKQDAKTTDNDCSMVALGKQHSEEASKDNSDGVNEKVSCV

As to `C=CC(=O)Nc1ccc(C(=O)Nc2[nH]nc3c2CN(C(=O)N[C@H](CN(C)C)c2ccccc2)C3(C)C)cc1`, the % of engagement in assay [1] stood at 4.9%. As to `O=C(NOC[C@H](O)CO)c1ccc(F)c(F)c1Nc1ccc(I)cc1F`, in assay [2], the % of control is 77%. With `CCc1cc(Nc2nccc(-c3c(-c4ccc(OC)c(C(=O)Nc5c(F)cccc5F)c4)nc4ccccn34)n2)c(OC)cc1N1CCC(N2CCN(S(C)(=O)=O)CC2)CC1`, the IC50 against Aurora kinase A is above 1500 nM. In assay [3], `N#Cc1cccc(-c2c[nH]c3ncnc(N4CCOCC4)c23)c1` gave a % of control of 36%. `C=CC(=O)Nc1cccc(C(=O)Nc2ccc(Nc3cc(-c4[nH]c(SC)nc4C)ccn3)cc2)c1`: the % of control in assay [4] (at 1 µM) was determined as 100%; in assay [4] (at 5 µM), 73%. Consider `COc1cc(C(=O)N2CC[C@@H](O)[C@@H](N)C2)cc2nc(-c3cc4ccccc4n3CC3CC3)n(C)c12`, for which the pXC50 in assay [5] was found to be 4.9 M.
